Data on two compounds can be found in patent US9771353B2, “Kinase inhibitors based upon N-alkyl pyrazoles” (RESPIVERT LIMITED, priority 2013, dated 2017).

One experiment concerns PBMCs. The experiment can be described thus: IL-2 and IFN gamma release in CD3/CD28 stimulated PBMC cells, assay (c). In kind it is cell-based. The note with it: Homo sapiens. The protocol:
PBMCs from healthy subjects are separated from whole blood using a density gradient (Lymphoprep, Axis-Shield Healthcare). Cells are added to a 96 well plate pre-coated with a mixture of CD3/CD28 monoclonal antibodies (0.3 μg/mL eBioscience and 3 μg/mL BD Pharmingen respectively). Compound at the desired concentration is then added to the wells and the plate left for 3 days under normal tissue culture conditions. Supernatants are harvested and IL-2 and IFN gamma release determined by Sandwich ELISA (Duo-set, R&D System). The IC50 is determined from the dose response curve.

The test system of a further experiment is HT29 cells. The experiment can be described thus: IL-1β-induced IL-8 release in HT29 cells, assay (d). In kind it is cell-based. Particulars: Homo sapiens, HT-29, IL-1β-stimulated HT29 cells, read-out: IC50 Values for Inhibition of Cytokine Release, HT29 cells IL-8. The protocol: HT29 cells, a human colon adenocarcinoma cell line, are plated in a 96 well plate (24 hrs) and pre-treated with compounds at the desired concentration for 2 hours before addition of 5 ng/mL of IL-1β (Abcam) for 24 hours. Supernatants are harvested for IL-8 quantification by Sandwich ELISA (Duo-set, R&D System). The IC50 is determined from the dose response curve.

Experiment [1] has as its system TNBS-induced colitis in mice. The experiment can be described thus: TNBS-induced colitis in mice, in vivo assay (iv), conducted over 2 days. The note with it: for Ulcer grade: TNBS + Vehicle 4.3 ± 0.2; for LP inflammation: TNBS + Vehicle 4.7 ± 0.1. The protocol: Non-fasted, 10-12 week old, male BDF1 mice are dosed by oral gavage twice daily with either vehicle (5 mL/kg), reference item (Budesonide 2.5 mg/kg) or test compound (1 or 5 mg/kg) one day before (Day −1) stimulation of the inflammatory response by treatment with 2,4,6-trinitrobenzenesulphonic acid (TNBS) (15 mg/mL in 50% ethanol/50% saline). On Day 0 of the study TNBS (200 μL) is administered intra-colonically via a plastic catheter with BID dosing of the vehicle, reference or test compound continuing for 2 or 4 days. During the study animals are weighed every day and stool observations are made and recorded as a score, based on stool consistency. At the time of sacrifice on Day 2 (or Day 4) the large intestine is removed and the length and weight recorded. Sections of the colon are taken for histopathology scoring to determine disease severity.

For experiment [2], the system named is intestinal mucosa biopsies from UC patients. As to the kind of experiment: Human biopsy assay (l): cytokine release from intestinal mucosa biopsies of ulcerative colitis patients. Format: cell-based. Particulars: 1 μg/mL, 24 hours. The protocol: Intestinal mucosa biopsies are obtained from the inflamed regions of the colon of IBD patients. The biopsy material is cut into small pieces (2-3 mm) and placed on steel grids in an organ culture chamber at 37° C. in a 5% CO2/95% O2 atmosphere in serum-free media. DMSO control or test compounds at the desired concentration are added to the tissue and incubated for 24 hr in the organ culture chamber. The supernatant is harvested for determination of IL-6, IL-8, IL-1β and TNFα levels by R&D ELISA. Percentage inhibition of cytokine release by the test compounds is calculated relative to the cytokine release determined for the DMSO control (100%).

Another experiment addresses p38 MAPKα (Homo sapiens (Human), UniProt Q16539). The experiment can be described thus: p38 MAPKα enzyme inhibition (FRET, Z-LYTE), Method 2. Format: biochemical.
Another experiment concerns the target c-Src (Homo sapiens (Human), UniProt P12931). As to the kind of experiment: c-Src enzyme inhibition (FRET, Z-LYTE). In kind it is biochemical. As for the experimental part: The enzyme inhibitory activities of compounds disclosed herein are determined by FRET using synthetic peptides labelled with both donor and acceptor fluorophores (Z-LYTE, Invitrogen Ltd., Paisley, UK).
The relevant enzyme (3000 ng/mL or 2000 ng/mL respectively, 2.5 μL) is incubated with the test compound (either 4 μg/mL, 0.4 μg/mL, 0.04 μg/mL, or 0.004 μg/mL, 2.5 μL each) for 2 hr at RT. The FRET peptides (8 μM, 2.5 μL), and appropriate ATP solutions (2.5 μL, 800 μM for c-Src, and 60 μM ATP for Syk) are then added to the enzymes/compound mixtures and incubated for 1 hr. Development reagent (protease, 5 μL) is added for 1 hr prior to detection in a fluorescence microplate reader (Varioskan® Flash, ThermoFisher Scientific).
In all cases, the site-specific protease cleaves non-phosphorylated peptide only and eliminates the FRET signal. Phosphorylation levels of each reaction are calculated using the ratio of coumarin emission (donor) over fluorescein emission (acceptor), for which high ratios indicate high phosphorylation and low ratios indicate low phosphorylation levels.

The mark [3] stands for this setting: IL-2, read-out: IC50 Values for Inhibition of Cytokine Release, PBMCs IL-2.
Setting [4] is: UC patient biopsies, DMSO control = 100%.

The structures appear in SMILES notation. Where two headings read alike, the source gives them in different places.

Chain of p38 MAPKα (Q16539 whole entry): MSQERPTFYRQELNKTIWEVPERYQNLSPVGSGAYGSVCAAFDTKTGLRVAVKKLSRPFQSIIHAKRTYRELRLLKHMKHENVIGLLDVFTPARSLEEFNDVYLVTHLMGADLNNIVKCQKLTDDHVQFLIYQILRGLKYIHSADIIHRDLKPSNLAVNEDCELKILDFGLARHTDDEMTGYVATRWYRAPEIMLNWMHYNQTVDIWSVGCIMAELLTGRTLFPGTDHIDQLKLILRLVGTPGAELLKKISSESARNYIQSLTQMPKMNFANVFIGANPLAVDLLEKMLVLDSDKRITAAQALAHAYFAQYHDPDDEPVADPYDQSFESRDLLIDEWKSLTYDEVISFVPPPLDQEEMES
Chain of c-Src (P12931 whole entry, looked up): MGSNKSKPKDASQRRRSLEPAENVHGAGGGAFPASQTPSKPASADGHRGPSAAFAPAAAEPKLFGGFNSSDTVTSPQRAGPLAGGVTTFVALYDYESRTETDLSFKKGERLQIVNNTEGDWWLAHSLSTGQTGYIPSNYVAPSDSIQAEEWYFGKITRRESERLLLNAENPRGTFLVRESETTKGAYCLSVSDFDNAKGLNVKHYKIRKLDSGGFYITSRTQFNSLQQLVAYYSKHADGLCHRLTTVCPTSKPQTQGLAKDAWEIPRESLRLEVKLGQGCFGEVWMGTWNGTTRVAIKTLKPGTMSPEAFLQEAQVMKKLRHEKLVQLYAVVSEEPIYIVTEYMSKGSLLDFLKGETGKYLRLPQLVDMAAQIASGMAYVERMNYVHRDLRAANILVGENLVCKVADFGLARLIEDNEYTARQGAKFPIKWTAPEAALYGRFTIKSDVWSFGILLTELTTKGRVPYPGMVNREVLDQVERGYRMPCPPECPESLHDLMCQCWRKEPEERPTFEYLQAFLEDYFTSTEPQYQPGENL

With `C#Cc1cc(Nc2nccc(Oc3ccc(NC(=O)Nc4cc(C(C)(C)C)nn4C)c4ccccc34)n2)cc(C(=O)NCCN2CCOCC2)c1` [Example 1, 3-((4-((4-(3-(3-(tert-Butyl)-1-methyl-1H-pyrazol-5-yl)ureido)naphthalen-1-yl)oxy)pyrimidin-2-yl)amino)-5-ethynyl-N-(2-morpholinoethyl)benzamide], the half-inhibitory concentration (IC50) – broadly, the concentration that gives 50% inhibition – in the experiment with PBMCs (setting [3]) is 17.5 nM. Also, the IC50 in the experiment with HT29 cells was 33.4 nM. In experiment [1] (1 mg/kg oral BID, mice, 2 days), the Ulcer grade came to 3.3 ± 0.5 and the LP inflammation is reported as 4.2 ± 0.2. In experiment [1] (5 mg/kg oral BID, mice, 2 days), the Ulcer grade is 3.2 ± 0.5 and the LP inflammation worked out at 2.4 ± 0.3. The “inflammatory cell infiltrate in the reticular and laminar propria zone” value in experiment [1] (TNBS colitis, mice) is recorded as “marked reduction”. For the same compound, the “activity in in vivo model of colonic inflammation (histopathology analysis)” value in experiment [1] (TNBS colitis, mice, 2 days) is recorded as “significant activity”. Moreover, the “ulcer grade and epithelial repair compared to the vehicle control” value in experiment [1] (dosed orally at either 1 or 5 mg/kg) was “marked improvements”. In experiment [2] (setting [4]), this compound displayed an IL-1β release of 3 ± 2%, an IL-6 release of 8 ± 8% and an IL-8 release of 2 ± 2%. Besides, the “cytokine (IL-1β, IL-6 and IL-8) release compared to the DMSO control” value in experiment [2] (biopsies from ulcerative colitis patients) is “significantly inhibited”.
With `COCCOCCOCCOc1cc(Nc2nccc(Oc3ccc(NC(=O)Nc4cc(C(C)(C)C)nn4C)c4ccccc34)n2)cc(OC)c1` [Example 2, 1-(3-(tert-Butyl)-1-methyl-1H-pyrazol-5-yl)-3-(4-((2-((3-methoxy-5-(2-(2-(2-methoxy-ethoxy)ethoxy)ethoxy)phenyl)amino)pyrimidin-4-yl)oxy)naphthalen-1-yl)urea], the half-maximal inhibitory concentration (IC50) on p38 MAPKα was determined as 10 nM; against c-Src, 5 nM; with PBMCs (IFNγ, read-out: IC50 Values for Inhibition of Cytokine Release, PBMCs IFNγ) it was 6.2 nM; in the experiment on PBMCs (setting [3]), 11.3 nM; in the experiment with HT29 cells, 16.6 nM.
